From PubChem BioAssay (NCI)
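These data come from cells grown in 96-well plates and exposed to compound for 48 hours at five concentrations. Definition used: TGI = concentration required for complete inhibition of growth.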

How the values were obtained:
Assay in all cases: inhibition of tumour cell growth, NCI panel, 48 h
786-0 renal = test system: 786-0 renal
A498 renal = test system: A498 renal
A549 NSCLC = test system: A549 NSCLC
ACHN renal = test system: ACHN renal
BT-549 breast = test system: BT-549 breast
CAKI-1 renal = test system: CAKI-1 renal
CCRF-CEM leukemia = test system: CCRF-CEM leukemia
COLO 205 colon = test system: COLO 205 colon
DU-145 prostate = test system: DU-145 prostate
HCC-2998 colon = test system: HCC-2998 colon
HCT-116 colon = test system: HCT-116 colon
HCT-15 colon = test system: HCT-15 colon
HL-60(TB) leukemia = test system: HL-60(TB) leukemia
HOP-62 NSCLC = test system: HOP-62 NSCLC
HOP-92 NSCLC = test system: HOP-92 NSCLC
HS 578T breast = test system: HS 578T breast
HT29 colon = test system: HT29 colon
IGROV1 ovarian = test system: IGROV1 ovarian
K-562 leukemia = test system: K-562 leukemia
KM12 colon = test system: KM12 colon
LOX IMVI melanoma = test system: LOX IMVI melanoma
M14 melanoma = test system: M14 melanoma
MALME-3M melanoma = test system: MALME-3M melanoma
MCF7 breast = test system: MCF7 breast
MDA-MB-231 breast = test system: MDA-MB-231 breast
MDA-MB-435 = test system: MDA-MB-435
MDA-N = test system: MDA-N
MOLT-4 leukemia = test system: MOLT-4 leukemia
NCI-H226 lung = test system: NCI-H226 lung
NCI-H23 lung = test system: NCI-H23 lung
NCI-H460 lung = test system: NCI-H460 lung
NCI-H522 lung = test system: NCI-H522 lung
NCI/ADR-RES ovarian = test system: NCI/ADR-RES ovarian
OVCAR-3 ovarian = test system: OVCAR-3 ovarian
OVCAR-4 ovarian = test system: OVCAR-4 ovarian
OVCAR-5 ovarian = test system: OVCAR-5 ovarian
OVCAR-8 ovarian = test system: OVCAR-8 ovarian
PC-3 prostate = test system: PC-3 prostate
RPMI-8226 leukemia = test system: RPMI-8226 leukemia
RXF 393 renal = test system: RXF 393 renal
SF-268 CNS = test system: SF-268 CNS
SF-295 CNS = test system: SF-295 CNS
SF-539 CNS = test system: SF-539 CNS
SK-MEL-2 melanoma = test system: SK-MEL-2 melanoma
SK-MEL-28 melanoma = test system: SK-MEL-28 melanoma
SK-MEL-5 melanoma = test system: SK-MEL-5 melanoma
SN12C renal = test system: SN12C renal
SNB-19 CNS = test system: SNB-19 CNS
SNB-75 CNS = test system: SNB-75 CNS
SR leukemia = test system: SR leukemia
T-47D breast = test system: T-47D breast
TK-10 renal = test system: TK-10 renal
U251 CNS = test system: U251 CNS
UACC-257 melanoma = test system: UACC-257 melanoma
UACC-62 melanoma = test system: UACC-62 melanoma
UO-31 renal = test system: UO-31 renal
EKVX NSCLC = test system: EKVX NSCLC
SK-OV-3 ovarian = test system: SK-OV-3 ovarian
SW-620 colon = test system: SW-620 colon

Compound: CC(=O)OCC1OC(n2c3c(cc(C#N)c2=O)CCCCCC3)C(OC(C)=O)C(OC(C)=O)C1OC(C)=O (configuration not stated)
- TGI (786-0 renal): > 100 µM
- TGI (A498 renal): > 100 µM
- TGI (A549 NSCLC): > 100 µM
- TGI (ACHN renal): > 100 µM
- TGI (BT-549 breast): > 100 µM
- TGI (CAKI-1 renal): > 100 µM
- TGI (CCRF-CEM leukemia): > 100 µM
- TGI (COLO 205 colon): > 100 µM
- TGI (DU-145 prostate): > 100 µM
- TGI (HCC-2998 colon): > 100 µM
- TGI (HCT-116 colon): > 100 µM
- TGI (HCT-15 colon): > 100 µM
- TGI (HL-60(TB) leukemia): > 100 µM
- TGI (HOP-62 NSCLC): > 100 µM
- TGI (HOP-92 NSCLC): > 100 µM
- TGI (HS 578T breast): > 100 µM
- TGI (HT29 colon): > 100 µM
- TGI (IGROV1 ovarian): > 100 µM
- TGI (K-562 leukemia): > 100 µM
- TGI (KM12 colon): > 100 µM
- TGI (LOX IMVI melanoma): > 100 µM
- TGI (M14 melanoma): > 100 µM
- TGI (MALME-3M melanoma): > 100 µM
- TGI (MCF7 breast): > 100 µM
- TGI (MDA-MB-231 breast): > 100 µM
- TGI (MDA-MB-435): > 100 µM
- TGI (MDA-N): > 100 µM
- TGI (MOLT-4 leukemia): > 100 µM
- TGI (NCI-H226 lung): > 100 µM
- TGI (NCI-H23 lung): > 100 µM
- TGI (NCI-H460 lung): > 100 µM
- TGI (NCI-H522 lung): > 100 µM
- TGI (NCI/ADR-RES ovarian): > 100 µM
- TGI (OVCAR-3 ovarian): > 100 µM
- TGI (OVCAR-4 ovarian): > 100 µM
- TGI (OVCAR-5 ovarian): > 100 µM
- TGI (OVCAR-8 ovarian): > 100 µM
- TGI (PC-3 prostate): > 100 µM
- TGI (RPMI-8226 leukemia): > 100 µM
- TGI (RXF 393 renal): > 100 µM
- TGI (SF-268 CNS): > 100 µM
- TGI (SF-295 CNS): > 100 µM
- TGI (SF-539 CNS): > 100 µM
- TGI (SK-MEL-2 melanoma): > 100 µM
- TGI (SK-MEL-28 melanoma): > 100 µM
- TGI (SK-MEL-5 melanoma): > 100 µM
- TGI (SN12C renal): > 100 µM
- TGI (SNB-19 CNS): > 100 µM
- TGI (SNB-75 CNS): > 100 µM
- TGI (SR leukemia): > 100 µM
- TGI (T-47D breast): 90.3 µM
- TGI (TK-10 renal): > 100 µM
- TGI (U251 CNS): > 100 µM
- TGI (UACC-257 melanoma): > 100 µM
- TGI (UACC-62 melanoma): > 100 µM
- TGI (UO-31 renal): > 100 µM

Compound: O=C(N=Nc1c(O)[nH]c2ccccc12)C(O)(c1ccccc1)c1ccccc1
- TGI (786-0 renal): > 100 µM
- TGI (A498 renal): 36 µM
- TGI (A549 NSCLC): 42.1 µM
- TGI (ACHN renal): > 100 µM
- TGI (BT-549 breast): 28.9 µM
- TGI (CAKI-1 renal): > 100 µM
- TGI (CCRF-CEM leukemia): > 100 µM
- TGI (COLO 205 colon): 33.3 µM
- TGI (DU-145 prostate): 73.9 µM
- TGI (EKVX NSCLC): > 100 µM
- TGI (HCC-2998 colon): 27.9 µM
- TGI (HCT-116 colon): 37.5 µM
- TGI (HCT-15 colon): 30.3 µM
- TGI (HL-60(TB) leukemia): 69 µM
- TGI (HOP-92 NSCLC): 49.7 µM
- TGI (HS 578T breast): 66.6 µM
- TGI (HT29 colon): 37.2 µM
- TGI (IGROV1 ovarian): 39.6 µM
- TGI (K-562 leukemia): 89.8 µM
- TGI (KM12 colon): 35.4 µM
- TGI (LOX IMVI melanoma): 31.4 µM
- TGI (M14 melanoma): 30.4 µM
- TGI (MALME-3M melanoma): 46.5 µM
- TGI (MCF7 breast): 56.4 µM
- TGI (MDA-MB-231 breast): 35.5 µM
- TGI (MDA-MB-435): 31.8 µM
- TGI (MDA-N): 34 µM
- TGI (MOLT-4 leukemia): > 100 µM
- TGI (NCI-H226 lung): 43.8 µM
- TGI (NCI-H23 lung): 30.1 µM
- TGI (NCI-H460 lung): 34.7 µM
- TGI (NCI/ADR-RES ovarian): 84.6 µM
- TGI (OVCAR-3 ovarian): 36.3 µM
- TGI (OVCAR-4 ovarian): 50.9 µM
- TGI (OVCAR-5 ovarian): 31.5 µM
- TGI (OVCAR-8 ovarian): 67.3 µM
- TGI (PC-3 prostate): 38.5 µM
- TGI (RPMI-8226 leukemia): 62 µM
- TGI (RXF 393 renal): 28.3 µM
- TGI (SF-268 CNS): 87.9 µM
- TGI (SF-295 CNS): 36.3 µM
- TGI (SF-539 CNS): 29.6 µM
- TGI (SK-MEL-2 melanoma): 31.8 µM
- TGI (SK-MEL-28 melanoma): 33.9 µM
- TGI (SK-MEL-5 melanoma): 29.7 µM
- TGI (SK-OV-3 ovarian): 56.6 µM
- TGI (SNB-19 CNS): 34.2 µM
- TGI (SNB-75 CNS): 43.6 µM
- TGI (SR leukemia): 79.4 µM
- TGI (SW-620 colon): 34 µM
- TGI (T-47D breast): 68.8 µM
- TGI (TK-10 renal): 99.3 µM
- TGI (U251 CNS): 35.3 µM
- TGI (UACC-257 melanoma): 56.3 µM
- TGI (UACC-62 melanoma): 30.1 µM
- TGI (UO-31 renal): 29.8 µM
